Columns and labels:
gel-filtered platelets = assay: In vitro inhibition of thrombin-induced gel-filtered platelet aggregation; type: cell-based; settings: Homo sapiens; for inhibition at 50 µM: read-out: Platelet Aggregation % Inh. (50µM)
Experimental: IN VITRO INHIBITION OF THROMBIN-INDUCED GEL-FILTERED PLATELET AGGREGATION ASSAY.
The percentage of platelet aggregation is calculated as an increase in light transmission of compound-treated platelet concentrate vs. control-treated platelet concentrate. Human blood is obtained from drug free, normal donors into tubes containing 0.13M sodium citrate. Platelet rich plasma (PRP) is collected by centrifugation of whole blood at 200 x g for 10 min at 25°C. The PRP (5 mL) is gel filtered through Sepharose 2B (bed volume 50 mL), and the platelet count is adjusted to 2x10^7 platelets per sample. The following constituents are added to a siliconized cuvette: concentrated platelet filtrate and Tyrode's buffer (0.14M NaCl, 0.0027MKCl, 0.012M NaHCO3, 0.76 mM Na2HPO4, 0.0055M glucose, 2 mg/mL BSA and 5.0mM HEPES @ pH 7.4) in an amount equal to 350 µl, 50 µl of 20 mM calcium and 50 µl of the test compound. Aggregation is monitored in a BIODATA aggregometer for the 3 min following the addition of agonist (thrombin 50 µl of 1 unit/mL).

GPIIb/IIIa = GPIIb/IIIa (Homo sapiens, UniProt P05106+P08514); assay: In vitro solid phase purified glycoprotein IIb/IIIa binding assay (biotinylated fibrinogen binding); settings: for inhibition at 50 µM: read-out: Fibrinogen Binding % Inh. (50 µM)
Experimental: IN VITRO SOLID PHASE PURIFIED GLYCOPROTEIN IIB/IIIA BINDING ASSAY.
The plate is covered and incubated overnight at 4°C. The GPIIb/IIa solution is discarded and 150 µl of 5% BSA is added and incubated at RT for 1-3 h. The plate is washed extensively with modified Tyrodes buffer. Biotinylated fibrinogen (25 µl/well) at 2 x final concentration is added to the wells that contain the test compounds (25 µl/well). The plate is covered and incubated at RT for 2-4 h. Twenty minutes prior to incubation completion, one drop of Reagent A (Vecta Stain ABC Horse Radish Peroxidase kit, Vector Laboratories, Inc.) and one drop Reagent B are added with mixing to 5 mL modified Tyrodes buffer mix and let stand. The ligand solution is discarded and the plate washed (5 x 200 µl/well) with modified Tyrodes buffer. Vecta Stain HRP-Biotin-Avidin reagent (50 µl/well, as prepared above) is added and incubated at RT for 15 min. The Vecta Stain solution is discarded and the wells washed (5 x 200 µl/well) with modified Tyrodes buffer. Developing buffer (10 mL of 50 mM citrate/phosphate buffer @ pH 5.3, 6 mg o-phenylenediamine, 6 µl 30% H2O2; 50 µl/well) is added and incubated at RT for 3-5 min, and then 2N H2SO4 (50 µl/well) is added. The absorbance is read at 490 nm.

Chain of GPIIb/IIIa (P08514 32-887 limits assumed): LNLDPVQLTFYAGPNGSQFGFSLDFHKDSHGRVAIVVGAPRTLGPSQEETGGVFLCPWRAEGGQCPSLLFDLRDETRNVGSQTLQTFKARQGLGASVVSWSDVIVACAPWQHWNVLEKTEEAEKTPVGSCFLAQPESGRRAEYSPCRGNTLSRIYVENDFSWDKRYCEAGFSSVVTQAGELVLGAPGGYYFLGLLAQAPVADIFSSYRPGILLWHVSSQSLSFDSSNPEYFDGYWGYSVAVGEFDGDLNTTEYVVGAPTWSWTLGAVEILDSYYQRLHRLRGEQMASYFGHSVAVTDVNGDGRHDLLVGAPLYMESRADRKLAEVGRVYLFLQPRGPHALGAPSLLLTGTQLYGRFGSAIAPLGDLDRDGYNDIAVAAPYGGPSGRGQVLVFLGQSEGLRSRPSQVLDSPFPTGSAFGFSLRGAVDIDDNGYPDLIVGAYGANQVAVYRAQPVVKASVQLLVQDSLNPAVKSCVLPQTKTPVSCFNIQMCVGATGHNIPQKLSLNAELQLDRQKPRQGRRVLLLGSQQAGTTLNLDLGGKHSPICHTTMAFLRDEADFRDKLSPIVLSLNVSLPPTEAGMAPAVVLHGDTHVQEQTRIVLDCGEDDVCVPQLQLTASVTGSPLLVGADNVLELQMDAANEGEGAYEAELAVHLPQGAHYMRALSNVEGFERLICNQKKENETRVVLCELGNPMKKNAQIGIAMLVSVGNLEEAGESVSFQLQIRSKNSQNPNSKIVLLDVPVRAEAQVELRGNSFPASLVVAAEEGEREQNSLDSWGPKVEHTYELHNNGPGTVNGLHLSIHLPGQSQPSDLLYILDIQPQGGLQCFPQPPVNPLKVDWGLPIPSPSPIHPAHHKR
Chain of GPIIb/IIIa (P08514 891-1039 partner limits assumed): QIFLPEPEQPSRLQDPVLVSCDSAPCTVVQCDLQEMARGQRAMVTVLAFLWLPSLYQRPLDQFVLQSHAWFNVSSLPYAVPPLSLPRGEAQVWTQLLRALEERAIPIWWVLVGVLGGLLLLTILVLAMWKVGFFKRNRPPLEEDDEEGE
Chain of GPIIb/IIIa (P05106 27-788): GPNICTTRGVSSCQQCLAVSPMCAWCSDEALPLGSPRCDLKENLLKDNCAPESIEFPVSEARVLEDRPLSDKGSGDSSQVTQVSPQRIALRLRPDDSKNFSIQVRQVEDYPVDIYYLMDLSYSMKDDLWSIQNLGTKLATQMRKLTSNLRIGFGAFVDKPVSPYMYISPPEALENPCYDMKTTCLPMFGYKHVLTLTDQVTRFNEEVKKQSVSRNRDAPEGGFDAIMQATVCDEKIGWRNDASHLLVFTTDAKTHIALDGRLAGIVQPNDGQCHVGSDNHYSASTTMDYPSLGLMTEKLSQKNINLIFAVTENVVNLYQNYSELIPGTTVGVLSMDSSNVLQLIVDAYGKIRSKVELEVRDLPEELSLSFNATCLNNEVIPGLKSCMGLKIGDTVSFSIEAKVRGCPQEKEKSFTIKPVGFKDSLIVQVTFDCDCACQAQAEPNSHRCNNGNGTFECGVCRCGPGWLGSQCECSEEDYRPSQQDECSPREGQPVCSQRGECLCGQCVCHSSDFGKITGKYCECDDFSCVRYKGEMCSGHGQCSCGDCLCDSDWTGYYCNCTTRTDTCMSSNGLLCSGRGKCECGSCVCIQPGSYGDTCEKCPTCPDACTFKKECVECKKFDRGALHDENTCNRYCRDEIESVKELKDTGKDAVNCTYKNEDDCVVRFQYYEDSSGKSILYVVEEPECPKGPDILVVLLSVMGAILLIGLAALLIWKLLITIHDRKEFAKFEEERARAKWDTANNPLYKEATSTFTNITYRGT

| Structure (SMILES) | IC50 (gel-filtered platelets) [nM] | inhibition at 50 µM (gel-filtered platelets) [%] | inhibition at 50 µM (GPIIb/IIIa) [%] | IC50 (GPIIb/IIIa) [nM] |
| --- | --- | --- | --- | --- |
| O=C(O)C(O)CNC(=O)[C@@H]1CCCN(C(=O)CCC2CCNCC2)C1 (single isomer, unassigned) [Compound 11, N-3-(4-Piperidinepropionyl)-R-(-)-nipecotyl-(3-amino-2-hydroxy) propionic acid] | 1550 | 99.2 | 79.6 | – |
| O=C(O)CC(NC(=O)C1CCCN(C(=O)CCC2CCNCC2)C1)c1ccccc1 (stereo not drawn) [Compound 1, N-3-(4-Piperidinepropionyl)-nipecotyl-(3-amino-3-phenyl) propionic acid] | 3600 | 83 | 95 | 3 |
| CC(CNC(=O)C1CCCN(C(=O)NCC2CCNCC2)C1)C(=O)O (stereo not drawn) [Compound 2, N-(4-Piperidinemethylaminocarbonyl)-nipecotyl-(3-amino-2-methyl) propionic acid] | 54000 | 95.7 | 93 | 27 |
| COC(=O)[C@@H](CC(=O)O)NC(=O)C1CCCN(C(=O)OCC2CCNCC2)C1 (stereo partly drawn) [Compound 3, N-(4-Piperidinemethyloxycarbonyl)-nipecotyl-D-aspartic acid α-methyl ester] | > 100000 | 26.2 | 81 | – |
| Cc1ccc(C(CC(=O)O)NC(=O)C2CCN(C(=O)CCC3CCNCC3)C2)cc1 (stereo not drawn) [Compound 4, N-3-(4-Piperidinepropionyl)-pyrrolidine-3-carboxy-[3-amino-3-(4-tolyl)]propionic acid] | 26000 | 81 | 89.9 | 121 |
| CC(CC(=O)O)NC(=O)C1CCN(C(=O)CCC2CCNCC2)CC1 (stereo not drawn) [Compound 5, N-3-(4-Piperidinepropionyl)-isonipecotyl-(3-amino-3-methyl) propionic acid] | 10000 | 100 | 89 | 12 |
| O=C(O)CC(NC(=O)C1CCN(C(=O)CCC2CCNCC2)CC1)c1ccc(C(=O)O)cc1 (stereo not drawn) [Compound 6] | 73000 | 71.2 | 90.7 | 197 |
| CN1CCC(CCC(=O)N2CCCC(C(=O)NCCC(=O)O)C2)CC1 (stereo not drawn) [Compound 7, N-3-(4-N-Methyl-piperidinepropionyl)-nipecotyl-3-aminopropionic acid] | 2400 | 75.6 | 100 | 6 |
| O=C(O)C1CN(C(=O)C2CCCN(C(=O)CCC3CCNCC3)C2)CCC1=O (stereo not drawn) [Compound 8, N-3-(4-Piperidinepropionyl)-nipecotyl-4-oxonipecotic acid] | – | – | 93 | 332 |
| C[Si](C)(C)C#CC(CC(=O)O)NC(=O)C1CCCN(C(=O)CCC2CCNCC2)C1 (stereo not drawn) [Compound 9, N-3-(4-Piperidinepropionyl)-nipecotyl-[3-amino-3-(2-trimethylsilylethynyl)]propionic acid] | 370 | 90.9 | 99 | 2 |
| NCCCCCC(=O)N1CCCC(C(=O)NC(CC(=O)O)c2cccnc2)C1 (stereo not drawn) [Compound 10, N-(6-Aminocaproyl)-nipecotyl-3-amino-3-(3-pyridyl)propionic acid] | 1600 | 85 | 91.3 | – |
| O=C(O)CCNC(=O)C1CCCN(S(=O)(=O)CCC2CCNCC2)C1 (stereo not drawn) [Compound 12, N-3-(4-Piperidineethanesulfonyl)-nipecotyl-3-aminopropionic acid] | 15500 | 88 | 97 | 25 |
| O=C(NCCc1nnn[nH]1)C1CCCN(C(=O)CCC2CCNCC2)C1 (stereo not drawn) [Compound 13, N-3-(4-Piperidinepropionyl)-nipecotyl-5H-(2-aminoethyl)tetrazole] | 25500 | 67 | 95 | 1390 |
| CN1CCN(CCC(=O)N2CCCC(C(=O)NC(CC(=O)O)c3ccc4c(c3)OCO4)C2)CC1 (stereo not drawn) [Compound 14, N-3-(4-N-Methyl-piperazinepropionyl)-nipecotyl-[3-amino-3-(3,4-methylenedioxyphenyl)]propionic acid] | 910 | 91 | 99 | 4 |
| O=C(O)CC(NC(=O)C1CCCCN(C(=O)CCC2CCNCC2)C1)c1cnc2ccccc2c1 (stereo not drawn) [Compound 17, N-3-(4-Piperidinepropionyl)-hexahydroazepine-3-carboxy-[3-amino-3-(3-quinolinyl)]propionic acid] | 450 | 89.6 | 96 | 5 |
| O=C(O)C[C@H](NC(=O)C1CCCN(CCCC2CCNCC2)C1)c1ccc2c(c1)OCO2 (stereo partly drawn) [Compound 20, N-3-(4-Piperidinepropyl)-nipecotyl-[(S)-3-amino-3-(3,4-methylenedioxyphenyl)]propionic acid] | 37000 | 89.7 | 99 | – |
| O=C(NC[C@@H]1NC(=O)N(Cc2ccccc2)C1=O)[C@@H]1CCCN(C(=O)CCC2CCNCC2)C1 [Compound 29, N-3-(4-Piperidinepropionyl)-R-(-)nipecotyl-aminomethyl-5-(S)-(3-N-benzyl)imidazoline-2.4-dione] | 42000 | 100 | 100 | – |
| O=C(O)C[C@H](NC(=O)[C@@H]1CCCN(C(=O)CCC2CCNCC2)C1)c1cncc(Br)c1 [Compound 32, N-3-(4-Piperidinepropionyl)-R-(-)nipecotyl-[(S)-3-amino-3-(5-bromo-3-pyridyl)] propionic acid] | 20 | – | 100 | – |
| N=CN1CCC(CCC(=O)N2CCCC(C(=O)NC(CC(=O)O)c3cccnc3)C2)CC1 [Compound 33, N-3-(4-Formamidinopiperidinepropionyl)-R-(-)nipecotyl-[(S)-3-amino-3-(3-pyridyl)] propionic acid] | 300 | 100 | 100 | – |

— patent publication EP1184374A1, “Carboxamide derivatives of pyrrolidine, piperidine and hexahydroazepine for the treatment of thrombosis disorders” (ORTHO PHARMACEUTICAL CORPORATION, priority 1996, dated 1997)
